The values that follow are results of earlier work, collected in patent US20230158047A1, “METHODS AND COMPOSITIONS FOR TREATING PROSTATE CANCER” (Tavanta Therapeutics Hungary Incorporated, priority 2020, published 2023).

In this series the test system is PSA levels. The following applies: phase 3, patients who failed prior chemotherapy with taxanes.

`CC(=O)O[C@H]1CC[C@@]2(C)C(=CC[C@@H]3[C@@H]2CC[C@]2(C)C(c4cccnc4)=CC[C@@H]32)C1` [abiraterone acetate, 3β-acetoxy-17-(3-pyridyl)-androsta-5,16-diene]: the “patients with at least a 50% decline from baseline in PSA levels” value is recorded as 38%.
